Laboratory results from patent publication US9468642B2, “Imidazopyrazines” (BAYER INTELLECTUAL PROPERTY GMBH, priority 2011, dated 2016).

These compounds were tested against human kinase Mps-1 (Homo sapiens (Human), UniProt P33981) (assay: Mps-1 Kinase Assay (TR-FRET)). Conditions: N-terminally GST-tagged human full length recombinant Mps-1; 10 μM ATP; 1 μM peptide substrate; 60 min at 22° C.; read-out: Mps1 IC50.
Format: biochemical
Method: The human kinase Mps-1 phosphorylates a biotinylated substrate peptide. Detection of the phosphorylated product is achieved by time-resolved fluorescence resonance energy transfer (TR-FRET) from Europium-labelled anti-phospho-Serine/Threonine antibody as donor to streptavidin labelled with cross-linked allophycocyanin (SA-XLent) as acceptor. Compounds are tested for their inhibition of the kinase activity.
N-terminally GST-tagged human full length recombinant Mps-1 kinase (purchased from Invitrogen, Karslruhe, Germany, cat. no PV4071) was used. As substrate for the kinase reaction a biotinylated peptide of the amino-acid sequence […] (C-terminus in amide form, purchased from Biosynthan GmbH, Berlin) was used.
The concentration of Mps-1 in the assay was adjusted to the activity of the enzyme lot and was chosen appropriate to have the assay in the linear range, typical enzyme concentrations were in the range of about 1 nM (final conc. in the 5 μl assay volume).
The resulting mixture was incubated 1 h at 22° C. to allow the binding of the phosphorylated peptide to the anti-phospho(Ser/Thr)-Europium-antibody. Subsequently the amount of phosphorylated substrate was evaluated by measurement of the resonance energy transfer from the Europium-labelled anti-phospho(Ser/Thr) antibody to the Streptavidin-XLent.

human kinase Mps-1, sequence (P33981 whole entry): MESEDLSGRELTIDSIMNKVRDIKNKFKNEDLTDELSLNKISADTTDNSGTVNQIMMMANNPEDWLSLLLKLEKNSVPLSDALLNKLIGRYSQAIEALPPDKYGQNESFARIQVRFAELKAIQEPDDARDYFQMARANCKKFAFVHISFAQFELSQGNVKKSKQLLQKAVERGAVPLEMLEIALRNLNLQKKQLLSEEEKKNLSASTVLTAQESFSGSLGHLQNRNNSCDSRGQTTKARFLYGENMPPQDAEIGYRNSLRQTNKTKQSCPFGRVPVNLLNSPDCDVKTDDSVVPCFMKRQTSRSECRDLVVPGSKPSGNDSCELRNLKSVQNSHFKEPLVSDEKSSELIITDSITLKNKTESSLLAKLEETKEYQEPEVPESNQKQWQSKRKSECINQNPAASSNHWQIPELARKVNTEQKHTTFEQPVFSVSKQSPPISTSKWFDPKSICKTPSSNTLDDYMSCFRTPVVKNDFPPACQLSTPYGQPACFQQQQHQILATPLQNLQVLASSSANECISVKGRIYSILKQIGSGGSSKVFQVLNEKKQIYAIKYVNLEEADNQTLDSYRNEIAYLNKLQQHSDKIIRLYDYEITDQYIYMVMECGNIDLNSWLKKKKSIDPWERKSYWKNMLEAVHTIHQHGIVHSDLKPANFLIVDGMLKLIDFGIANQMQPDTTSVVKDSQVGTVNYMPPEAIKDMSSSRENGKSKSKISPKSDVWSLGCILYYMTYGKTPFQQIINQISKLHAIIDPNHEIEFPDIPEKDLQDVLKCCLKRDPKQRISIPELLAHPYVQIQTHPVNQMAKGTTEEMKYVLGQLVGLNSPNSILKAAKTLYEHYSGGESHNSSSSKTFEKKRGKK

| Compound | IC50 [nM] |
| --- | --- |
| CCC[S+]([O-])c1nc(-c2ccccc2)cn2c(-c3ccc(C(=O)NC4CC4)cc3)cnc12 (racemic) [Example 7A, (RS) N-Cyclopropyl-4-[6-phenyl-8-(propylsulfinyl)imidazo[1,2-a]pyrazin-3-yl]benzamide] | 20 |
| CC(C)S(=O)(=O)c1nc(-c2ccccc2)cn2c(-c3ccc(C(=O)NC4CC4)cc3)cnc12 [Example 20B, N-cyclopropyl-4-[8-(isopropylsulfonyl)-6-phenylimidazo[1,2-a]pyrazin-3-yl]benzamide] | 13.9 |
| CCS(=O)(=O)c1nc(-c2ccccc2)cn2c(-c3ccc(C(=O)NC4CC4)cc3)cnc12 [Example 5B, N-Cyclopropyl-4-[8-(ethylsulfonyl)-6-phenylimidazo[1,2-a]pyrazin-3-yl]benzamide] | 7.7 |
| CC(C)(C)CCS(=O)(=O)c1nc(-c2ccccc2)cn2c(-c3ccc(C(=O)NC4CC4)cc3)cnc12 [Example 11B, N-Cyclopropyl-4-{8-[(3,3-dimethylbutyl)sulfonyl]-6-phenylimidazo[1,2-a]pyrazin-3-yl}benzamide] | 4.3 |
| CC(C)(C)OC(=O)NCCSc1nc(-c2ccccc2)cn2c(-c3ccc(C(=O)NC4CC4)cc3)cnc12 [Example 16, tert-butyl [2-({3-[4-(cyclopropylcarbamoyl)phenyl]-6-phenylimidazo[1,2-a]pyrazin-8-yl}sulfanyl)ethyl]carbamate] | 67.6 |
| CC(=O)NCCSc1nc(-c2ccccc2)cn2c(-c3ccc(C(=O)NC4CC4)cc3)cnc12 [Example 33] | 19.9 |
| CC(C)Sc1nc(-c2ccccc2)cn2c(-c3ccc(C(=O)NC4CC4)cc3)cnc12 [Example 19, N-cyclopropyl-4-[8-(isopropylsulfanyl)-6-phenylimidazo[1,2-a]pyrazin-3-yl]benzamide] | 22.3 |
| CC(C)CS(=O)(=O)c1nc(-c2ccccc2)cn2c(-c3ccc(C(=O)NC4CC4)cc3)cnc12 [Example 22B, N-cyclopropyl-4-[8-(isobutylsulfonyl)-6-phenylimidazo[1,2-a]pyrazin-3-yl]benzamide] | 6.4 |
| CC(C)CCS(=O)(=O)c1nc(-c2ccccc2)cn2c(-c3ccc(C(=O)NC4CC4)cc3)cnc12 [Example 24B, N-cyclopropyl-4-{8-[(3-methylbutyl)sulfonyl]-6-phenylimidazo[1,2-a]pyrazin-3-yl}benzamide] | 6.5 |
| CCSc1nc(-c2ccccc2)cn2c(-c3ccc(C(=O)NC4CC4)cc3)cnc12 [Example 4, N-Cyclopropyl-4-[8-(ethylsulfanyl)-6-phenylimidazo[1,2-a]pyrazin-3-yl]benzamide] | 22.2 |
| O=C(NC1CC1)c1ccc(-c2cnc3c([S+]([O-])CC(F)(F)F)nc(-c4ccccc4)cn23)cc1 (racemic) [Example 26A, (RS) N-cyclopropyl-4-{6-phenyl-8-[(2,2,2-trifluoroethyl)sulfinyl]imidazo[1,2-a]pyrazin-3-yl}benzamide] | 6.2 |
| CCCCCS(=O)(=O)c1nc(-c2ccccc2)cn2c(-c3ccc(C(=O)NC4CC4)cc3)cnc12 [Example 18B, N-cyclopropyl-4-[8-(pentylsulfonyl)-6-phenylimidazo[1,2-a]pyrazin-3-yl]benzamide] | 7.5 |
| C[S+]([O-])c1nc(-c2ccccc2)cn2c(-c3ccc(C(=O)NC4CC4)cc3)cnc12 (racemic) [Example 3B, (RS)—N-cyclopropyl-4-[8-(methylsulfinyl)-6-phenylimidazo[1,2-a]pyrazin-3-yl]benzamide] | 8.9 |
| (1R or 1S)-1-(4-{3-[4-(2-cyclopropyl-1H-imidazol-5-yl)phenyl]-8-(methylsulfanyl)imidazo[1,2-a]pyrazin-6-yl}phenyl)ethanol [Example 34B] | 58.2 |
| CC(C)(C)CCSc1nc(-c2ccccc2)cn2c(-c3ccc(C(=O)NC4CC4)cc3)cnc12 [Example 10, N-Cyclopropyl-4-{8-[(3,3-dimethylbutyl)sulfanyl]-6-phenylimidazo[1,2-a]pyrazin-3-yl}benzamide] | 85.1 |
